Patent US6673782B2, “Treatment of systemic lupus erythematosis” (Wisconsin Alumni Research Foundation, priority 1999, dated 2004)
“Also recorded” adds a separate entry of the source.

How the values were obtained:
MRL/MPJ-Fas<lpr>mice [1] = assay: Mortality of MRL/MPJ-Fas mice on 0.02% calcium diet; assay type: in vivo; conditions: 0.02% Ca + 100 ng/mouse/day; between 18 and 20 weeks of age (no control deaths)
Procedure: (§1) MRL/MPJ-Fasmice were raised on a chow diet. At 5-6 weeks of age 13 mice were switched to a purified diet containing 0.02% calcium and 14 mice were put on a diet containing 0.02% calcium with 100 ng of 1,25(OH)2D3 per/mouse/day. The mice were checked weekly for physical symptoms of lupus. The symptoms were given numerical scores starting at 0.5=small sore on skin; 1=swollen lymph nodes under front legs; 2=swollen lymph nodes under front legs and neck; 3=swollen lymph nodes under front legs, neck, and back legs (severity scores used in figure on the next page).
(§2) FIG. 3A and B and Tables 3 and 4 disclose data points obtained in this study. At 12 weeks of age the 0.02% Ca+100 ng of 1,25(OH)2D3 group began to show SLE symptoms. It was not until 14 weeks of age that the control (0.02% Ca) mice had the same percentage severity as the mice dosed with 1,25(OH)2D3. Between 18 and 20 weeks of age, about 21.4% of the 0.02% Ca+100 ng 1,25(OH)2D3 mice died. However, none of the controls had reached motality. The experiment was ended at 20 weeks of age.

MRL/MPJ mice [2] = assay: SLE disease severity (physical symptom) scores in MRL mice on 0.87% calcium diet; assay type: in vivo; parameters: key to Mean scores of disease severity: 0.5 = small sores … 3 = swollen nodes front legs, neck and back legs; conditions: for Mean scores of disease severity: 0.87% Ca, score 0.5-3
Procedure: MRL mice are the model for the human disease lupus. See Brians, et al., J. Exp. Med. 148:1198-1215, 1978 and P. L. Cohen and R. A. Eisenburg, Annu. Rev. Immunol. 9:243-69, 1991.
(§3) When the MRL mice in this study were 4 weeks old, they were started on one of three experimental diets. All mice were fed the experimental diet which contains 0.87% Ca. Control mice are fed the experimental diet with no 1,25(OH)2D3; one group of 7 mice were fed the experimental diet with 50 ng/mouse/day of 1,25(OH)2D3; and another group of 8 mice were fed the experimental diet with 200 ng/mouse/day of 1,25(OH)2D3. The mice were checked weekly for physical symptoms. In control-fed MRL mice, SLE disease symptoms spontaneously develop after 5 weeks. Symptoms were given numbers from 0.5 to 3, with 0.5 being small sores; 1, swollen lymph nodes under front legs; 2, swollen lymph nodes under front legs and on neck; 3, swollen lymph nodes under front legs, neck and back legs (severity scores for table).
(§4) The diet was then replaced with the same diet providing a dose level of 100 ng/mouse/day.
(§5) The first physical symptoms of lupus began to develop in two female control-fed mice at 14 weeks of age. […] At 17 weeks of age the control mice started to die. Their proteinuria levels were elevated above 300 mg/dl. […] FIG. 1 compares the percentage of mice with elevated proteinuria with the age of the mouse. FIG. 2 compares the severity of the SLE with symptoms the age of the mice.

MRL/MPJ-Fas<lpr>mice [3] = assay: Proteinuria in MRL/MPJ-Fas mice on 0.02% calcium diet; assay type: in vivo; conditions: 0.02% Ca diet + 100 ng/mouse/day
[4] = Serum calcium, hypercalcemia and death in MRL mice on 0.87% calcium diet; assay type: in vivo; conditions: for Serum calcium: 0.87% Ca diet (controls 8 mg %Ca)
Procedure: as §3, §4, §5
Serum calcium values were measured and found to be at 8 mg %Ca for the controls, and 12 mg %Ca for both the 50 ng and 100 ng treated groups. The 1,25(OH)2D3 treatment diet was removed at 17 weeks of age, and all mice were fed the 0.87% calcium control diet for the remainder of the experiment.

MRL/MPJ mice [5] = assay: Proteinuria in MRL mice on 0.87% calcium diet; assay type: in vivo; conditions: for % of Mice with Proteinuria at 100 mg/dL and Greater: 0.87% Ca
Procedure: as §3
Proteinuria levels were checked weekly started at 16 weeks of age.
as §5

MRL/MPJ-Fas<lpr>mice [6] = assay: Mean symptom scores of lupus in MRL/MPJ-Fas mice on 0.02% calcium diet; assay type: in vivo; conditions: for Mean symptom scores on 0.02% Ca: 0.02% Ca diet + 100 ng/mouse/day, score 0.5-3
Procedure: as §1, §2

MRL/I mice = conditions: Lemire et al., Autoimmunity 1992; cited from earlier work

With C=C1/C(=C\C=C2/CCC[C@]3(C)[C@@H]([C@H](C)CCCC(C)(C)O)CC[C@@H]23)C[C@@H](O)C[C@@H]1O [1,25(OH)2D3, 1α,25-dihydroxyvitamin D3] the Mice died (MRL/MPJ-Fas<lpr>mice [1]) was “about 21.4%”, the “Mean scores of disease severity” value (MRL/MPJ mice [2]; 50 ng/mouse/day until 17 weeks, age 18 weeks) was 0.21 and the “Mean scores of disease severity” value (MRL/MPJ mice [2]; 50 ng/mouse/day until 17 weeks, age 19 weeks) was 0.12. For the same compound, the “Mean scores of disease severity” value (MRL/MPJ mice [2]; 50 ng/mouse/day until 17 weeks, age 20 weeks) was 0.33, the “Mean scores of disease severity” value (MRL/MPJ mice [2]; 50 ng/mouse/day until 17 weeks, age 21 weeks) was 0.11 and the “Mean scores of disease severity” value (MRL/MPJ mice [2]; 50 ng/mouse/day until 17 weeks, age 22 weeks) was 0.11. For the same compound, the “Mean scores of disease severity” value (MRL/MPJ mice [2]; 50 ng/mouse/day until 17 weeks, age 23 weeks) was 0.11, the “Mean scores of disease severity” value (MRL/MPJ mice [2]; 50 ng/mouse/day until 17 weeks, age 24 weeks) was 0.11 and the “Mean scores of disease severity” value (MRL/MPJ mice [2]; 50 ng/mouse/day, age 0-13 weeks) was 0.00. The “Mean scores of disease severity” value (MRL/MPJ mice [2]; 50 ng/mouse/day, age 14 weeks) was 0.00, the “Mean scores of disease severity” value (MRL/MPJ mice [2]; 50 ng/mouse/day, age 15 weeks) was 0.00 and the “Mean scores of disease severity” value (MRL/MPJ mice [2]; 50 ng/mouse/day, age 16 weeks) was 0.21. The “Mean scores of disease severity” value (MRL/MPJ mice [2]; 50 ng/mouse/day, age 17 weeks) was 0.21, the “Mean scores of disease severity” value (MRL/MPJ mice [2]; 200 ng then 100 ng/mouse/day until 17 weeks, age 18 weeks) was 0.07 and the “Mean scores of disease severity” value (MRL/MPJ mice [2]; 200 ng then 100 ng/mouse/day until 17 weeks, age 19 weeks) was 0.08. For the same compound, the “Mean scores of disease severity” value (MRL/MPJ mice [2]; 200 ng then 100 ng/mouse/day until 17 weeks, age 20 weeks) was 0.00, the “Mean scores of disease severity” value (MRL/MPJ mice [2]; 200 ng then 100 ng/mouse/day until 17 weeks, age 21 weeks) was 0.00 and the “Mean scores of disease severity” value (MRL/MPJ mice [2]; 200 ng then 100 ng/mouse/day until 17 weeks, age 22 weeks) was 0.00. The “Mean scores of disease severity” value (MRL/MPJ mice [2]; 200 ng then 100 ng/mouse/day until 17 weeks, age 23 weeks) was 0.00, the “Mean scores of disease severity” value (MRL/MPJ mice [2]; 200 ng then 100 ng/mouse/day until 17 weeks, age 24 weeks) was 0.00 and the “Mean scores of disease severity” value (MRL/MPJ mice [2]; 200 ng then 100 ng/mouse/day, age 14 weeks) was 0.00. For the same compound, the “Mean scores of disease severity” value (MRL/MPJ mice [2]; 200 ng then 100 ng/mouse/day, age 15 weeks) was 0.00, the “Mean scores of disease severity” value (MRL/MPJ mice [2]; 200 ng then 100 ng/mouse/day, age 16 weeks) was 0.00 and the “Mean scores of disease severity” value (MRL/MPJ mice [2]; 200 ng then 100 ng/mouse/day, age 17 weeks) was 0.00. The “Mean scores of disease severity” value (MRL/MPJ mice [2]; 200 ng then (from 10 weeks) 100 ng/mouse/day, age 0-13 weeks) was 0.00, the “Effect on SLE symptoms” value (MRL/MPJ mice [2]; mice on a 0.87% calcium diet) was “prevented or slowed SLE symptoms” and the “Disease severity scores versus controls” value (MRL/MPJ mice [2]; treated mice, 0.87% Ca diet) was “much less for the treated mice than for controls”. The “Physical symptoms of lupus” value (MRL/MPJ mice [2]; treated mice, 0.87% Ca diet, at 14 weeks of age (two control mice symptomatic)) was “None of the 1,25(OH)2D3-treated mice showed symptoms”, the “% Proteinurea scores above 100 mg/dl on 0.02% Ca” value (MRL/MPJ-Fas<lpr>mice [3]; age 10 weeks) was 0% and the “% Proteinurea scores above 100 mg/dl on 0.02% Ca” value (MRL/MPJ-Fas<lpr>mice [3]; age 11 weeks) was 0%. For the same compound, the “% Proteinurea scores above 100 mg/dl on 0.02% Ca” value (MRL/MPJ-Fas<lpr>mice [3]; age 12 weeks) was 7.14%, the “% Proteinurea scores above 100 mg/dl on 0.02% Ca” value (MRL/MPJ-Fas<lpr>mice [3]; age 13 weeks) was 14.28% and the “% Proteinurea scores above 100 mg/dl on 0.02% Ca” value (MRL/MPJ-Fas<lpr>mice [3]; age 14 weeks) was 14.28%. For the same compound, the “% Proteinurea scores above 100 mg/dl on 0.02% Ca” value (MRL/MPJ-Fas<lpr>mice [3]; age 15 weeks) was 35.7%, the “% Proteinurea scores above 100 mg/dl on 0.02% Ca” value (MRL/MPJ-Fas<lpr>mice [3]; age 16 weeks) was 28.57% and the “% Proteinurea scores above 100 mg/dl on 0.02% Ca” value (MRL/MPJ-Fas<lpr>mice [3]; age 17 weeks) was 28.57%. For the same compound, the “% Proteinurea scores above 100 mg/dl on 0.02% Ca” value (MRL/MPJ-Fas<lpr>mice [3]; age 18 weeks) was 42.85%, the “% Proteinurea scores above 100 mg/dl on 0.02% Ca” value (MRL/MPJ-Fas<lpr>mice [3]; age 19 weeks) was 28.57% and the “% Proteinurea scores above 100 mg/dl on 0.02% Ca” value (MRL/MPJ-Fas<lpr>mice [3]; age 20 weeks) was 28.57%. The Serum calcium ([4]; 50 ng treated group) was 12 mg %Ca, the Serum calcium ([4]; 100 ng treated group) was 12 mg %Ca and the Symptoms of hypercalcemia ([4]; 200 ng/mouse/day, 0.87% Ca diet, at 10 weeks of age) was “began to show symptoms of hypercalcemia”. For the same compound, the “Death of treated animals” value ([4]; 0.87% Ca diet, at 17 weeks of age) was “began to die of what we believe to be hypercalcemia”, the “% of Mice with Proteinuria at 100 mg/dL and Greater” value (“% of Mice with Proteinuria” below) (MRL/MPJ mice [5]; 50 ng/mouse/day in diet, treatment removed at 17 weeks, age 18 weeks) was 0% and the “% of Mice with Proteinuria” value (MRL/MPJ mice [5]; 50 ng/mouse/day in diet, treatment removed at 17 weeks, age 19-25 weeks) was 0%. The “% of Mice with Proteinuria” value (MRL/MPJ mice [5]; 50 ng/mouse/day in diet, age 0-15 weeks) was 0%, the “% of Mice with Proteinuria” value (MRL/MPJ mice [5]; 50 ng/mouse/day in diet, age 16-17 weeks) was 0% and the “% of Mice with Proteinuria” value (MRL/MPJ mice [5]; 200 ng then 100 ng/mouse/day in diet, treatment removed at 17 weeks, age 18 weeks) was 0%. The “% of Mice with Proteinuria” value (MRL/MPJ mice [5]; 200 ng then 100 ng/mouse/day in diet, treatment removed at 17 weeks, age 19-25 weeks) was 0%, the “% of Mice with Proteinuria” value (MRL/MPJ mice [5]; 200 ng then 100 ng/mouse/day in diet, age 16-17 weeks) was 0% and the “% of Mice with Proteinuria” value (MRL/MPJ mice [5]; 200 ng then (from 10 weeks) 100 ng/mouse/day in diet, age 0-15 weeks) was 0%. The “Development of proteinuria of 100 mg/dL or greater” value (MRL/MPJ mice [5]; all treated mice, 0.87% Ca diet, whole experiment) was “none of the 1,25(OH)2D3 treated mice developed proteinuria of 100 mg/dL or greater”, the “Age at which group began to show SLE symptoms” value (MRL/MPJ-Fas<lpr>mice [6]; 0.02% Ca + 100 ng/mouse/day) was 12 weeks of age and the “Mean symptom scores on 0.02% Ca” value (MRL/MPJ-Fas<lpr>mice [6]; age 10 weeks) was 0. The “Mean symptom scores on 0.02% Ca” value (MRL/MPJ-Fas<lpr>mice [6]; age 11 weeks) was 0.214 ± 0.410, the “Mean symptom scores on 0.02% Ca” value (MRL/MPJ-Fas<lpr>mice [6]; age 12 weeks) was 1.642 ± 0.410 and the “Mean symptom scores on 0.02% Ca” value (MRL/MPJ-Fas<lpr>mice [6]; age 13 weeks) was 2.14 ± 0.515. The “Mean symptom scores on 0.02% Ca” value (MRL/MPJ-Fas<lpr>mice [6]; age 14 weeks) was 2.714 ± 0.45, the “Mean symptom scores on 0.02% Ca” value (MRL/MPJ-Fas<lpr>mice [6]; age 15 weeks) was 2.785 ± 0.41 and the “Mean symptom scores on 0.02% Ca” value (MRL/MPJ-Fas<lpr>mice [6]; age 16 weeks) was 2.85 ± 0.349. The “Mean symptom scores on 0.02% Ca” value (MRL/MPJ-Fas<lpr>mice [6]; age 17 weeks) was 2.85 ± 0.349, the “Mean symptom scores on 0.02% Ca” value (MRL/MPJ-Fas<lpr>mice [6]; age 18 weeks) was 2.80 ± 0.46 and the “Mean symptom scores on 0.02% Ca” value (MRL/MPJ-Fas<lpr>mice [6]; age 19 weeks) was 2.77 ± 0.49. The “Mean symptom scores on 0.02% Ca” value (MRL/MPJ-Fas<lpr>mice [6]; age 20 weeks) was 2.95 ± 0.33, the Disease progression (MRL/MPJ-Fas<lpr>mice [6]; low calcium diet and treatment) was “disease progression occurring more quickly” and the “Effect on SLE symptoms” value (MRL/MPJ-Fas<lpr>mice [6]; mice on a 0.02% (low) calcium diet) was “not effective; also recorded: did not inhibit these symptoms”. For the same compound, the “Effect on symptoms of experimental murine lupus” value (MRL/I mice) was “attenuation by 1,25-dihydroxyvitamin D3 of some symptoms”.
